These results are taken from patent US11524966B1 (Valo Early Discovery, Inc., priority 2017, dated 2022).

This assay has as its target T1, USP25 (USP25-His6, Boston Biochem E-546) (Homo sapiens, UniProt Q9UHP3).
T1 construct: His6; purchased Boston Biochem E-546
T1 sequence (Q9UHP3 1-1055): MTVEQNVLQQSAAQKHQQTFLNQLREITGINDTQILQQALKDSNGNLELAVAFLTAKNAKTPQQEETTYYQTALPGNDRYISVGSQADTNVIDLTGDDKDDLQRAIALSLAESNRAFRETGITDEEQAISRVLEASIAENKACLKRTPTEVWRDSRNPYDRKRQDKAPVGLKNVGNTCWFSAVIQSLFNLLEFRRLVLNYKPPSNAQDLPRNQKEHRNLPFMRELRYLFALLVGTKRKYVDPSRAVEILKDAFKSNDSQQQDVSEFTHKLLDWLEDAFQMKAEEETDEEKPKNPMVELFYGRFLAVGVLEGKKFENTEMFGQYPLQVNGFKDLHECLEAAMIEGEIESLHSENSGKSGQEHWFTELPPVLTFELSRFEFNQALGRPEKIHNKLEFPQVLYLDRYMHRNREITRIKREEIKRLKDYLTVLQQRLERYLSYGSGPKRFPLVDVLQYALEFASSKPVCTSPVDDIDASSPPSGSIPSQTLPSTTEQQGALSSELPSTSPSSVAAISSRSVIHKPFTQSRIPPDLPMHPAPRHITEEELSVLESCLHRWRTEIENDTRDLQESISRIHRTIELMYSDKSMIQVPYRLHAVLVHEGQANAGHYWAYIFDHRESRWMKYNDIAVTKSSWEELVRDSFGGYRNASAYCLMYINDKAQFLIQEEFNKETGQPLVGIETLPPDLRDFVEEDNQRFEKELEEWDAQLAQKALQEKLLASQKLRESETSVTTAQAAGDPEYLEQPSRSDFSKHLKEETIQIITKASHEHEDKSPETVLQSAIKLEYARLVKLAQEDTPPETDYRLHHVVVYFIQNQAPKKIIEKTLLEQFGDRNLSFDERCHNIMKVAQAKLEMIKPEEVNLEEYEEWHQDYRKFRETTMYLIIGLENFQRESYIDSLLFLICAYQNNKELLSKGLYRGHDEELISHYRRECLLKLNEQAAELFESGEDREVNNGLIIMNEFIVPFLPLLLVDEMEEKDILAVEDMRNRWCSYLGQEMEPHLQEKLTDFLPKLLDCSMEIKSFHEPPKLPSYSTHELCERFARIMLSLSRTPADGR
In words: Ubiquitin-Rhodamine 110 Assay for USP25 Activity, Example A-2. Particulars: Ubiquitin-Rhodamine 110 assay, Example A-2; read-out: USP25 A-2 IC50 range. The assay is classed as biochemical. The method in brief:
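Cleavage of ubiquitin-rhodamine 110 (25 nM, well below Km) by His-tagged USP25 at 75 pM is measured fluorimetrically after 45 min at room temperature and acid quench. Inhibitors are preincubated with enzyme for 30 minutes. IC50 values come from four-parameter logistic curve fitting.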

pIC50: −log10 of the molar value.

`Cc1ccc2c(N)c(C(=O)N[C@H]3CCc4nc(N5C[C@@H](N)[C@@H](OC(C)(F)F)C5)ccc4C3)sc2n1` [Example 358, 3-amino-N-[(6S)-2-[(3R,4S)-3-amino-4-(1,1-difluoroethoxy)pyrrolidin-1-yl]-5,6,7,8-tetrahydroquinolin-6-yl]-6-methylthieno[2,3-b]pyridine-2-carboxamide]: the pIC50 is below 5.70. As for `Cc1ccc2c(N)c(C(=O)N[C@H]3CCc4nc(N5C[C@H](N)[C@@H](C(F)(F)F)C5)ccc4C3)sc2n1` [Example 363, 3-amino-N-[(6S)-2-[(3R,4S)-3-amino-4-(trifluoromethyl)pyrrolidin-1-yl]-5,6,7,8-tetrahydroquinolin-6-yl]-6-methylthieno[2,3-b]pyridine-2-carboxamide], the pIC50 was 5.70 to 6.70. Regarding `Cc1cnc2c(N)c(C(=O)N[C@H]3CCc4nc(N5C[C@H](N)C6(COC6)C5)ccc4C3)sc2n1` [Example 365, 7-amino-N-[(6S)-2-[(8R)-8-amino-2-oxa-6-azaspiro[3.4]octan-6-yl]-5,6,7,8-tetrahydroquinolin-6-yl]-3-methylthieno[2,3-b]pyrazine-6-carboxamide], the pIC50 is 5.70 to 6.70. The same measure for `Cc1cnc2c(N)c(C(=O)N[C@H]3CCc4nc(N5C[C@@H](N)C6(COC6)C5)ccc4C3)sc2n1` [Example 366, 7-amino-N-[(6S)-2-[(8S)-8-amino-2-oxa-6-azaspiro[3.4]octan-6-yl]-5,6,7,8-tetrahydroquinolin-6-yl]-3-methylthieno[2,3-b]pyrazine-6-carboxamide]: below 5.70. The same measure for `Cc1ccc2c(N)c(C(=O)N[C@H]3COc4cc(N5CC[C@H](N)C5)ccc4C3)sc2n1` [Example 369, 3-amino-N-[(3R)-7-[(3S)-3-aminopyrrolidin-1-yl]-3,4-dihydro-2H-1-benzopyran-3-yl]-6-methylthieno[2,3-b]pyridine-2-carboxamide]: 6.70 to 7.30. The same measure for `Cc1ccc2c(N)c(C(=O)N[C@H]3CCc4nc(N5C[C@H](N)[C@]6(CCCO6)C5)ccc4C3)sc2n1` [Example 390, 3-amino-N-[(6S)-2-[(5S,9S)-9-amino-1-oxa-7-azaspiro[4.4]nonan-7-yl]-5,6,7,8-tetrahydroquinolin-6-yl]-6-methylthieno[2,3-b]pyridine-2-carboxamide]: below 5.70; for `Cc1ccc2c(N)c(C(=O)N[C@H]3CCc4nc(N5C[C@@H](N)[C@]6(CCCO6)C5)ccc4C3)sc2n1` [Example 391, 3-amino-N-[(6S)-2-[(5S,9R)-9-amino-1-oxa-7-azaspiro[4.4]nonan-7-yl]-5,6,7,8-tetrahydroquinolin-6-yl]-6-methylthieno[2,3-b]pyridine-2-carboxamide]: 5.70 to 6.70. Consider `Cc1ccc2c(N)c(C(=O)N[C@H]3CCc4nc(N5C[C@@H](N)[C@@]6(CCCO6)C5)ccc4C3)sc2n1` [Example 392, 3-amino-N-[(6S)-2-[(5R,9R)-9-amino-1-oxa-7-azaspiro[4.4]nonan-7-yl]-5,6,7,8-tetrahydroquinolin-6-yl]-6-methylthieno[2,3-b]pyridine-2-carboxamide], for which the pIC50 was below 5.70. With `Cc1ccc2c(N)c(C(=O)N[C@H]3CCc4nc(N5C[C@H](N)[C@@]6(CCCO6)C5)ccc4C3)sc2n1` [Example 393, 3-amino-N-[(6S)-2-[(5R,9S)-9-amino-1-oxa-7-azaspiro[4.4]nonan-7-yl]-5,6,7,8-tetrahydroquinolin-6-yl]-6-methylthieno[2,3-b]pyridine-2-carboxamide], the pIC50 was below 5.70. Turning to `Cc1ccc2c(N)c(C(=O)N[C@H]3COc4cc(N5CC6CNC[C@](C)(C5)O6)cc(F)c4C3)sc2n1` [Example 413, 3-amino-N-[(3R)-5-fluoro-7-[(1R)-1-methyl-9-oxa-3,7-diazabicyclo[3.3.1]nonan-3-yl]-3,4-dihydro-2H-1-benzopyran-3-yl]-6-methylthieno[2,3-b]pyridine-2-carboxamide], the pIC50 was 5.70 to 6.70. The same measure for `Cc1ccc2c(N)c(C(=O)N[C@H]3COc4cc(N5CC6CNC[C@@](C)(C5)O6)cc(F)c4C3)sc2n1` [Example 414, 3-amino-N-[(3R)-5-fluoro-7-[(1S)-1-methyl-9-oxa-3,7-diazabicyclo[3.3.1]nonan-3-yl]-3,4-dihydro-2H-1-benzopyran-3-yl]-6-methylthieno[2,3-b]pyridine-2-carboxamide]: 5.70 to 6.70; for `CO[C@@H]1CN(c2cc3c(c(F)c2F)C[C@@H](NC(=O)c2sc4nc(C)ccc4c2N)CO3)C[C@H]1N` [Example 415, 3-amino-N-[(3R)-7-[(3R,4R)-3-amino-4-methoxypyrrolidin-1-yl]-5,6-difluoro-3,4-dihydro-2H-1-benzopyran-3-yl]-6-methylthieno[2,3-b]pyridine-2-carboxamide]: 5.70 to 6.70. The same measure for `CO[C@H]1CN(c2cc3c(c(F)c2F)C[C@@H](NC(=O)c2sc4nc(C)ccc4c2N)CO3)C[C@@H]1N` [Example 416, 3-amino-N-[(3R)-7-[(3S,4S)-3-amino-4-methoxpyrrolidin-1-yl]-5,6-difluoro-3,4-dihydro-2H-1-benzopyran-3-yl]-6-methylthieno[2,3-b]pyridine-2-carboxamide]: 5.70 to 6.70. On to `Cc1ccc2c(N)c(C(=O)N[C@H]3CCc4cc(N5CCNCC5)c(F)c(F)c4C3)sc2n1` [Example 417, 3-amino-N-[(2S)-7,8-difluoro-6-(piperazin-1-yl)-1,2,3,4-tetrahydronaphthalen-2-yl]-6-methylthieno[2,3-b]pyridine-2-carboxamide], for which the pIC50 is below 5.70. The figure for `Cc1ccc2c(N)c(C(=O)N[C@@H]3CCc4cc(N5CCNCC5)c(F)c(F)c4C3)sc2n1` [Example 418, 3-amino-N-[(2R)-7,8-difluoro-6-(piperazin-1-yl)-1,2,3,4-tetrahydronaphthalen-2-yl]-6-methylthieno[2,3-b]pyridine-2-carboxamide] is 5.70 to 6.70; for `Cc1cnc2c(N)c(C(=O)N[C@H]3CCc4cc(N5CC6CNCC(C5)O6)ccc4C3)sc2n1` [Example 448, N-((2S)-6-(9-oxa-3,7-diazabicyclo[3.3.1]nonan-3-yl)-1,2,3,4-tetrahydronaphthalen-2-yl)-7-amino-3-methylthieno[2,3-b]pyrazine-6-carboxamide] it is 5.70 to 6.70. The figure for `Cc1cnc2c(N)c(C(=O)N[C@@H]3CCc4cc(N5CC6CNCC(C5)O6)ccc4C3)sc2n1` [Example 450, N-((2R)-6-(9-oxa-3,7-diazabicyclo[3.3.1]nonan-3-yl)-1,2,3,4-tetrahydronaphthalen-2-yl)-7-amino-3-methylthieno[2,3-b]pyrazine-6-carboxamide] is below 5.70; for `Cc1ccc2c(N)c(C(=O)N[C@@H]3CCc4cc(N5CC6CNCC(C5)O6)ccc4C3)sc2n1` [Example 451, N-((2R)-6-(9-oxa-3,7-diazabicyclo[3.3.1]nonan-3-yl)-1,2,3,4-tetrahydronaphthalen-2-yl)-3-amino-6-methylthieno[2,3-b]pyridine-2-carboxamide] it is 5.70 to 6.70. The figure for `Cc1cnc2c(N)c(C(=O)N[C@@H]3CCc4cc(N5CCCNCC5)ccc4C3)sc2n1` [Example 452, (R)-N-(6-(1,4-diazepan-1-yl)-1,2,3,4-tetrahydronaphthalen-2-yl)-7-amino-3-methylthieno[2,3-b]pyrazine-6-carboxamide] is below 5.70; for `Cc1cnc2c(N)c(C(=O)N[C@H]3CCc4cc(N5CCCNCC5)ccc4C3)sc2n1` [Example 455, (S)-N-(6-(1,4-diazepan-1-yl)-1,2,3,4-tetrahydronaphthalen-2-yl)-7-amino-3-methylthieno[2,3-b]pyrazine-6-carboxamide] it is 5.70 to 6.70.
